This note sets out measurements from BindingDB's records for doi:10.1021/jm960083n (Dupont Pharmaceuticals, 1996).

The assay has as its target T1, Dimer of Gag-Pol polyprotein [489-587] (Human immunodeficiency virus 1, UniProt P12497).
T1 construct: 489-587
In words: Protease Inhibition Assay. The following applies: pH 5.5; 37 °C. Here is the method: Inhibition of HIV protease was measured by assay of the cleavage of a fluorescent peptide substrate. The fluorescent product (2-aminobenzoyl-Ala-Thr-His-Gln-Val-Tyr) was separated from the fluorescent substrate by anion-exchange HPLC on a Mono-Q anion-exchange column (Pharmacia), and fluorescence was monitored at an excitation wavelength of 330 nm and an emission wavelength of 430 nm. Ki values for inhibitor binding were estimated at fixed concentrations of substrate and inhibitor from fractional activity measurements by use of the modified Michaelis-Menten equation.

One may read the pKi as the Ki on a negative log10 scale, so that one unit is a factor of ten.

pKi: −log10 of the molar value.

Consider `COc1cc(C[C@@H]2[C@H](O)[C@@H](O)[C@@H](Cc3cc(OC)cc(OC)c3)N(Cc3cccc(C(C)=O)c3)C(=O)N2Cc2cccc(C(C)=O)c2)cc(OC)c1` [(4R,5S,6S,7R)-4,7-bis[(3,5-dimethoxyphenyl)methyl]-1,3-bis[(3-acetylphenyl)methyl]-5,6-dihydroxy-1,3-diazepan-2-one], for which the pKi was 9.40.
For `CC(=O)c1cccc(CN2C(=O)N(Cc3cccc(C(C)=O)c3)[C@H](Cc3ccc4c(c3)OCO4)[C@H](O)[C@@H](O)[C@H]2Cc2ccc3c(c2)OCO3)c1` [(4R,5S,6S,7R)-Hexahydro-5,6-dihydroxy-1,3-bis(3-acetylbenzyl)-4,7-bis((3,4-(methylenedioxy)phenyl)methyl)-2H-1,3-diazapin-2-one] the value was 10.37.
For `CC(=O)c1cccc(CN2C(=O)N(Cc3cccc(C(C)=O)c3)[C@H](Cc3ccc4c(c3)N(C)CCO4)[C@H](O)[C@@H](O)[C@H]2Cc2ccc3c(c2)N(C)CCO3)c1` [(4R,5S,6S,7R)-Hexahydro-5,6-dihydroxy-1,3-bis(3-acetylbenzyl)-4,7-bis((4-methyl-3,4-dihydro-2H-benzo[b][1,4]-oxazin-6-yl)methyl)-2H-1,3-diazapin-2-one] the value was 10.10; for `CC(=O)c1cc(CN2C(=O)N(Cc3ccc(F)c(C(C)=O)c3)[C@H](Cc3ccc4c(c3)OCO4)[C@H](O)[C@@H](O)[C@H]2Cc2ccc3c(c2)OCO3)ccc1F` [(4R,5S,6S,7R)-Hexahydro-5,6-dihydroxy-1,3-bis(4-fluoro-3-acetylbenzyl)-4,7-bis((3,4-(methylenedioxy)phenyl)methyl)-2H-1,3-diazapin-2-one], 8.82.
